# Assays:
# Test in all cases: biochemical
# Format in all cases: binding
# panel of 442 kinases [1] = target: T1, panel of 442 kinases (Homo sapiens, UniProt O94768); settings: DRAK2; for remaining activity at 1 µM: read-out: % of control at 1 µM
# T1 construct: purchased Ambit Biosciences (scanMAXX KINOMEscan)
# T1 sequence (O94768 1-372): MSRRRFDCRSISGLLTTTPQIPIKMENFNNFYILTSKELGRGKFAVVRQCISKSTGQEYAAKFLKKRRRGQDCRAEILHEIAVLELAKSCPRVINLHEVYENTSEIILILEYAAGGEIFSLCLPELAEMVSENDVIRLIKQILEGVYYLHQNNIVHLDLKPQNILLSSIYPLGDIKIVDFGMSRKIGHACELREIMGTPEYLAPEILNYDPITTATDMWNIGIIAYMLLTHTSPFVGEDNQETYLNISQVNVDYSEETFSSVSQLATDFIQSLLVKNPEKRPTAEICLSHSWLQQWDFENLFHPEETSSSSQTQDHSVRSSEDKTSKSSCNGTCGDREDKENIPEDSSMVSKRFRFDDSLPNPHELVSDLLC
# panel of 442 kinases [2] = target: T2, panel of 442 kinases (Homo sapiens, UniProt P09769); settings: FGR; for remaining activity at 1 µM: read-out: % of control at 1 µM
# T2 construct: purchased Ambit Biosciences (scanMAXX KINOMEscan)
# T2 sequence (P09769 whole entry): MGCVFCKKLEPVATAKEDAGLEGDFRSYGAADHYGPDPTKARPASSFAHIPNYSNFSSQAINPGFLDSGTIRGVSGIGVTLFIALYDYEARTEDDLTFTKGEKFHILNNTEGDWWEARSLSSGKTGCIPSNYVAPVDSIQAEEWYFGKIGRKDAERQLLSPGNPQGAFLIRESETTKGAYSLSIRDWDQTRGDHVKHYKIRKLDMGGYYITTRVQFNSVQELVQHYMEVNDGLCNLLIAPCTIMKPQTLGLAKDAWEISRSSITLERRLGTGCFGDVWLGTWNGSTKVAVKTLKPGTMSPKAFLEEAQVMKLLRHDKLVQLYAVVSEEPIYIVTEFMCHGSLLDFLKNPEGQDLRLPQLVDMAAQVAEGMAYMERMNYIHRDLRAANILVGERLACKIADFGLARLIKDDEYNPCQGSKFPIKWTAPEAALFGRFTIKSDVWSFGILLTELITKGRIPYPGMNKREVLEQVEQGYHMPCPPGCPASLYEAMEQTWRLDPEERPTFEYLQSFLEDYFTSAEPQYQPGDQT
# panel of 442 kinases [3] = target: T3, panel of 442 kinases (Homo sapiens, UniProt Q05655); settings: kinase PRKCD; for remaining activity at 1 µM: read-out: PRKCD (% of control at 1 µM)
# T3 construct: purchased Ambit Biosciences (scanMAXX KINOMEscan)
# T3 sequence (Q05655 whole entry): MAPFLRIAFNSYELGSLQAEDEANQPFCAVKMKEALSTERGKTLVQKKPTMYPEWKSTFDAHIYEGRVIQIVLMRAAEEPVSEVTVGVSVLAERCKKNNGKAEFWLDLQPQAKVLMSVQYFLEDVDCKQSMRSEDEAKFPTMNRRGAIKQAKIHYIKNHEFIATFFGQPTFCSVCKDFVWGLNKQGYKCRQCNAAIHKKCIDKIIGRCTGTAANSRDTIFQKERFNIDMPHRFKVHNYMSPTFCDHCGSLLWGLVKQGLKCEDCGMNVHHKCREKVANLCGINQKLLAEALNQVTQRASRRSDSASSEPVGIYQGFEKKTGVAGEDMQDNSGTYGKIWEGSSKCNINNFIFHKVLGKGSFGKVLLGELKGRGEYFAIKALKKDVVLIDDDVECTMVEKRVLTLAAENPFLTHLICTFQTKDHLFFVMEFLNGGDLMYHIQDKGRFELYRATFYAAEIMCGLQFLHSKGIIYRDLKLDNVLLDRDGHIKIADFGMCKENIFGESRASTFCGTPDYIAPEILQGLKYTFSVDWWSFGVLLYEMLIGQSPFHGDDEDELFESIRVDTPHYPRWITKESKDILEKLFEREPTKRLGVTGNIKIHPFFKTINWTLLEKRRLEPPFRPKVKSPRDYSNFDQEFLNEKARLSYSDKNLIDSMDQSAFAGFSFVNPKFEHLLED
# panel of 442 kinases [4] = target: T4, panel of 442 kinases (Homo sapiens, UniProt Q16620); settings: kinase TRKB; for remaining activity at 1 µM: read-out: TRKB (% of control at 1 µM)
# T4 construct: purchased Ambit Biosciences (scanMAXX KINOMEscan)
# T4 sequence (Q16620 32-822): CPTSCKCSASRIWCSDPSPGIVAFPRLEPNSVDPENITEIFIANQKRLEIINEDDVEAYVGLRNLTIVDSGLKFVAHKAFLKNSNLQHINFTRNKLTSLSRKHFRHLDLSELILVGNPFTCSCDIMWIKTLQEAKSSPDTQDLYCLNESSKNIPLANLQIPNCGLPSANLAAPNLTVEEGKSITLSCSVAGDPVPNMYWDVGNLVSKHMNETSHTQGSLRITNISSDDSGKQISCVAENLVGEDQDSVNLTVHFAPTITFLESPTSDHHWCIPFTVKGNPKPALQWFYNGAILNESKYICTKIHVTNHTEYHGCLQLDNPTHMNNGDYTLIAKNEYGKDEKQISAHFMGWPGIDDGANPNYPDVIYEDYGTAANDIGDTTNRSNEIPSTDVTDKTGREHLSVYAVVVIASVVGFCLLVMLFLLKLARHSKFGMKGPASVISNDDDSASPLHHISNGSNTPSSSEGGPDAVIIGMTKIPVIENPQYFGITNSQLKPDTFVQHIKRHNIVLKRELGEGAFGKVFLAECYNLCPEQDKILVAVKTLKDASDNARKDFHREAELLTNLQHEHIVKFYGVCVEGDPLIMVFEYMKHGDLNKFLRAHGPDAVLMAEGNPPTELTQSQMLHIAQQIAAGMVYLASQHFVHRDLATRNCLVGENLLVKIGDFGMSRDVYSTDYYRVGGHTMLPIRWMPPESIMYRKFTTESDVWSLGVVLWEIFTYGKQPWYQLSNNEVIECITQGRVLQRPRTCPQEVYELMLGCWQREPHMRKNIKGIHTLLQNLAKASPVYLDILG
# panel of 442 kinases [5] = target: T5, panel of 442 kinases (Homo sapiens, UniProt Q86UX6); settings: kinase YANK3; for remaining activity at 1 µM: read-out: YANK3 (% of control at 1 µM)
# T5 construct: purchased Ambit Biosciences (scanMAXX KINOMEscan)
# T5 sequence (Q86UX6 whole entry): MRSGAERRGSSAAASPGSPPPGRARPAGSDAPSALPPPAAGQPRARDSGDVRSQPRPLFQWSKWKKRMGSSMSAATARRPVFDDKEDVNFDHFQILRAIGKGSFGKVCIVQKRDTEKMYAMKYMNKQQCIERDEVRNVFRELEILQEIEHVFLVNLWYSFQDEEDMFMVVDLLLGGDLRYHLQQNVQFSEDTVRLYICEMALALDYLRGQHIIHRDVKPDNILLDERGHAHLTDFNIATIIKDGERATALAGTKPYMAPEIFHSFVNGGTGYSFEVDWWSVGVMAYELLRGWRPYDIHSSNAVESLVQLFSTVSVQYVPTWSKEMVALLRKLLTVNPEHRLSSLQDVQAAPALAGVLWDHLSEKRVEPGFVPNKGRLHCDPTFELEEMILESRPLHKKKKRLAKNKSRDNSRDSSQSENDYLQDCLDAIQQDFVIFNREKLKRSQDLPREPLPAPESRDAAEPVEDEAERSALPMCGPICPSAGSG
# panel of 442 kinases [6] = target: T6, panel of 442 kinases (Homo sapiens, UniProt Q8TDC3); settings: BRSK1; for remaining activity at 1 µM: read-out: % of control at 1 µM
# T6 construct: purchased Ambit Biosciences (scanMAXX KINOMEscan)
# T6 sequence (Q8TDC3 1-778): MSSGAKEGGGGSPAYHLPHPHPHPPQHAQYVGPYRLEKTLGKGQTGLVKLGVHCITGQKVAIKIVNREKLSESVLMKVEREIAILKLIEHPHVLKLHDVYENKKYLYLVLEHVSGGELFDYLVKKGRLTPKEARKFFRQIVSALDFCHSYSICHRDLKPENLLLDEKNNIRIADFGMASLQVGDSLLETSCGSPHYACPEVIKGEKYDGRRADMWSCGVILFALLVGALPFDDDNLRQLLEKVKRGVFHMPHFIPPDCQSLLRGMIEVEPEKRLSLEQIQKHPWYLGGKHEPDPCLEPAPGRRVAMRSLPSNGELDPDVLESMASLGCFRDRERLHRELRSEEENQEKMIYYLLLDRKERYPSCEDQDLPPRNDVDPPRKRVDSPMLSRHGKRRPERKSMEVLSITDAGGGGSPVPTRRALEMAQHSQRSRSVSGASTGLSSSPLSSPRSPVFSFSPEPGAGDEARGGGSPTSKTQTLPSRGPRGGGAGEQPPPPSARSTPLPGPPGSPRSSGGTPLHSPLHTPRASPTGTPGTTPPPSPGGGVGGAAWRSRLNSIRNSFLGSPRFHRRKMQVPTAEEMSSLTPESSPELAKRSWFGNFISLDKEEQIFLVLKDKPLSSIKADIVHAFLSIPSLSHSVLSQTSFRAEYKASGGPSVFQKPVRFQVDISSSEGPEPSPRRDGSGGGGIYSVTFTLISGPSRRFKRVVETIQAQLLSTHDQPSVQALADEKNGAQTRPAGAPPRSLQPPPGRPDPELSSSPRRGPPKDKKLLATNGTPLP
# panel of 442 kinases [7] = target: T7, panel of 442 kinases (Homo sapiens, UniProt Q9BXA7); settings: kinase TSSK1B; for remaining activity at 1 µM: read-out: TSSK1B (% of control at 1 µM)
# T7 construct: purchased Ambit Biosciences (scanMAXX KINOMEscan)
# T7 sequence (Q9BXA7 1-367): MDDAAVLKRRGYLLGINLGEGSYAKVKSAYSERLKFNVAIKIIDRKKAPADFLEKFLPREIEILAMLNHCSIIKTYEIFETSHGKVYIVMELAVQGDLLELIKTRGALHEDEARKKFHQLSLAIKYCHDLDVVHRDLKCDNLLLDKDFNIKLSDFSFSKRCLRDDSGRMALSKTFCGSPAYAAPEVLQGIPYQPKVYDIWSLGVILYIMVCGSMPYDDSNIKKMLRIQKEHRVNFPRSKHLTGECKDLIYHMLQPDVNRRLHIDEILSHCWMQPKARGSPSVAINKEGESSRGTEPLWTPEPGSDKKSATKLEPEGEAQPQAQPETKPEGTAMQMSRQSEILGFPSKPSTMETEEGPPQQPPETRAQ
# panel of 442 kinases [8] = target: T8, panel of 442 kinases (Homo sapiens, UniProt Q9H2K8); settings: kinase TAOK3; for remaining activity at 1 µM: read-out: TAOK3 (% of control at 1 µM)
# T8 construct: purchased Ambit Biosciences (scanMAXX KINOMEscan)
# T8 sequence (Q9H2K8 1-898): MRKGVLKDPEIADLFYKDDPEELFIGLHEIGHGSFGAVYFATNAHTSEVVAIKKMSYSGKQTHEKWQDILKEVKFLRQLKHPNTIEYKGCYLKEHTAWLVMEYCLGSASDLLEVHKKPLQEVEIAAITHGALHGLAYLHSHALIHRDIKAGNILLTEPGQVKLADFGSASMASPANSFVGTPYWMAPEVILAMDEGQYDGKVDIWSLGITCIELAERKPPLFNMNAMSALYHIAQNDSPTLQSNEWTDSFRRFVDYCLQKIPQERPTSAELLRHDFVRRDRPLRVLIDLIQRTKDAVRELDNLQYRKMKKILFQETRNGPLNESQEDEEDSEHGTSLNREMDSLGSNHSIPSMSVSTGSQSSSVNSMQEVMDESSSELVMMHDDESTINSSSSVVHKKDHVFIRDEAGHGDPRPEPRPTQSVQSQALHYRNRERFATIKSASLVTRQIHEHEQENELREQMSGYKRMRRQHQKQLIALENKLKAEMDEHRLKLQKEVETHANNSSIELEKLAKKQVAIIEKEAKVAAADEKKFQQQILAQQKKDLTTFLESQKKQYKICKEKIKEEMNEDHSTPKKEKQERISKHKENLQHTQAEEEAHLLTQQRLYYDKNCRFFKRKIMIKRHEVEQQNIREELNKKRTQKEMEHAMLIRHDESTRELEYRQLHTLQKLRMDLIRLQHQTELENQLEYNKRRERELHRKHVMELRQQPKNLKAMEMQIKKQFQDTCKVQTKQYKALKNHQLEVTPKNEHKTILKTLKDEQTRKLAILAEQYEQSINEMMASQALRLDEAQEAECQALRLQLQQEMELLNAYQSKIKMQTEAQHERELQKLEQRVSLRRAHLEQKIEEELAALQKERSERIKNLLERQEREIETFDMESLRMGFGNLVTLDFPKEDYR
# [9] = 10 µM, read-out: % of control at 10 µM
smiles,measurement,setting,value
Nc1cc(C(F)(F)F)c(-c2cc(N3CCOCC3)nc(N3CCOCC3)n2)cn1 [Buparlisib],remaining activity at 1 µM,panel of 442 kinases [1],100%
same,remaining activity at 10 µM,panel of 442 kinases [1]; [9],100%
same,remaining activity at 1 µM,panel of 442 kinases [2],100%
same,remaining activity at 10 µM,panel of 442 kinases [2]; [9],100%
same,remaining activity at 1 µM,panel of 442 kinases [3],100%
same,remaining activity at 10 µM,"panel of 442 kinases [3]; 10 µM, read-out: PRKCD (% of control at 10 µM)",100%
same,remaining activity at 1 µM,panel of 442 kinases [4],96%
same,remaining activity at 10 µM,"panel of 442 kinases [4]; 10 µM, read-out: TRKB (% of control at 10 µM)",80%
same,remaining activity at 1 µM,panel of 442 kinases [5],94%
same,remaining activity at 10 µM,"panel of 442 kinases [5]; 10 µM, read-out: YANK3 (% of control at 10 µM)",100%
same,remaining activity at 1 µM,panel of 442 kinases [6],100%
same,remaining activity at 10 µM,panel of 442 kinases [6]; [9],100%
same,remaining activity at 1 µM,panel of 442 kinases [7],97%
same,remaining activity at 10 µM,"panel of 442 kinases [7]; 10 µM, read-out: TSSK1B (% of control at 10 µM)",100%
same,remaining activity at 1 µM,panel of 442 kinases [8],89%
same,remaining activity at 10 µM,"panel of 442 kinases [8]; 10 µM, read-out: TAOK3 (% of control at 10 µM)",78%
"Cn1c(=O)n(-c2ccc(C(C)(C)C#N)cc2)c2c3cc(-c4cnc5ccccc5c4)ccc3ncc21 [Dactolisib, 2-methyl-2-[4-(3-methyl-2-oxo-8-quinolin-3-yl-2,3-dihydroimidazo[4,5-c]quinolin-1-yl)-phenyl] propionitrile]",remaining activity at 1 µM,panel of 442 kinases [1],68%
same,remaining activity at 1 µM,panel of 442 kinases [2],81%
same,remaining activity at 1 µM,panel of 442 kinases [3],86%
same,remaining activity at 1 µM,panel of 442 kinases [4],61%
same,remaining activity at 1 µM,panel of 442 kinases [5],88%
same,remaining activity at 1 µM,panel of 442 kinases [6],83%
same,remaining activity at 1 µM,panel of 442 kinases [7],98%
same,remaining activity at 1 µM,panel of 442 kinases [8],100%
COc1ncc(-c2ccc3nccc(-c4ccnnc4)c3c2)cc1NS(=O)(=O)c1ccc(F)cc1F [Omipalisib],remaining activity at 1 µM,panel of 442 kinases [1],100%
same,remaining activity at 1 µM,panel of 442 kinases [2],84%
same,remaining activity at 1 µM,panel of 442 kinases [3],74%
same,remaining activity at 1 µM,panel of 442 kinases [4],100%
same,remaining activity at 1 µM,panel of 442 kinases [5],100%
same,remaining activity at 1 µM,panel of 442 kinases [6],100%
same,remaining activity at 1 µM,panel of 442 kinases [7],100%
same,remaining activity at 1 µM,panel of 442 kinases [8],100%
"FC(F)c1nc2ccccc2n1-c1nc(N2CCOCC2)nc(N2CCOCC2)n1 [ZSTK474, 2-(difluoromethyl)-1-[4,6-di(4-morpholinyl)-1,3,5-triazin-2-yl]-1H-benzimidazole]",remaining activity at 1 µM,panel of 442 kinases [1],86%
same,remaining activity at 1 µM,panel of 442 kinases [2],87%
same,remaining activity at 1 µM,panel of 442 kinases [3],100%
same,remaining activity at 1 µM,panel of 442 kinases [4],100%
same,remaining activity at 1 µM,panel of 442 kinases [5],73%
same,remaining activity at 1 µM,panel of 442 kinases [6],98%
same,remaining activity at 1 µM,panel of 442 kinases [7],76%
same,remaining activity at 1 µM,panel of 442 kinases [8],92%

# From paper PMC5564600 (Oncotarget, 2017)
